Measured values reported in PubChem BioAssay AID328 (DTP/NCI, 2004).
Where “and” joins values, the source holds several entries; their conditions need not be identical. Equal values may be shown once. Inconclusive results and toxic doses are left out.

Tested on: BDF1 mice, P388 leukemia ip, median survival T/C
Experiment: NCI In Vivo Anticancer Drug Screen. Data for tumor model P388 Leukemia (intraperitoneal) in B6D2F1 (BDF1) mice
Conditions: endpoint: median survival time, higher = longer survival
Outline: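 Each value expresses how treatment altered survival: treated-mouse outcome over vehicle-mouse outcome, both groups bearing the transplanted tumour.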

[1] = dose: 100.0 mg/kg/injection, schedule: Q01DX009 (ip), vehicle: saline
[2] = dose: 100.0 mg/kg/injection, schedule: Q04DX003 (ip), vehicle: saline
[3] = dose: 200.0 mg/kg/injection, schedule: Q01DX009 (ip), vehicle: saline
[4] = dose: 200.0 mg/kg/injection, schedule: Q04DX003 (ip), vehicle: saline
[5] = dose: 400.0 mg/kg/injection, schedule: Q01DX009 (ip), vehicle: saline
[6] = dose: 400.0 mg/kg/injection, schedule: Q04DX003 (ip), vehicle: saline
[7] = dose: 50.0 mg/kg/injection, schedule: Q01DX009 (ip), vehicle: saline with Tween-80
[8] = dose: 100.0 mg/kg/injection, schedule: Q01DX001 (ip), vehicle: Klucel (hydroxypropylcellulose) (HPC)
[9] = dose: 200.0 mg/kg/injection, schedule: Q01DX001 (ip), vehicle: Klucel (hydroxypropylcellulose) (HPC)

CCCCCCCCCCCC[n+]1cccc2ccccc21
T/C (dose: 0.15 mg/kg/injection, schedule: Q01DX009 (ip), vehicle: saline): 100 % of control | T/C (dose: 0.17 mg/kg/injection, schedule: Q04DX003 (ip), vehicle: saline): 118 % of control | T/C (dose: 0.34 mg/kg/injection, schedule: Q01DX009 (ip), vehicle: saline): 90 % of control and 122 % of control | T/C (dose: 0.35 mg/kg/injection, schedule: Q01DX009 (ip), vehicle: saline): 163 % of control | T/C (dose: 0.35 mg/kg/injection, schedule: Q04DX003 (ip), vehicle: saline): 122 % of control | T/C (dose: 0.7 mg/kg/injection, schedule: Q01DX009 (ip), vehicle: saline): 157 % of control | T/C (dose: 0.7 mg/kg/injection, schedule: Q04DX003 (ip), vehicle: saline): 118 % of control

BrC1C2C=CCC1CC2 (stereo unspecified)
T/C [1]: 100 % of control | T/C [2]: 91 % of control | T/C [3]: 90 % of control | T/C [4]: 91 % of control | T/C [5]: 104 % of control | T/C [6]: 95 % of control

O=[N+]([O-])c1ccc(N/N=C(\c2ccccc2)c2ccsc2)c([N+](=O)[O-])c1
T/C (dose: 6.25 mg/kg/injection, schedule: Q01DX009 (ip), vehicle: saline with Tween-80): 103 % of control | T/C (dose: 12.5 mg/kg/injection, schedule: Q01DX009 (ip), vehicle: saline with Tween-80): 100 % of control | T/C (dose: 25.0 mg/kg/injection, schedule: Q01DX009 (ip), vehicle: saline with Tween-80): 96 % of control | T/C [7]: 92 % of control

[NH-]C(CCC(N)=O)C(=O)O.[NH-]C(CCCN=C(N)N)C(=O)O.[Zn+2] (stereo unspecified)
T/C (dose: 50.0 mg/kg/injection, schedule: Q01DX005 (ip), vehicle: saline): 104 % of control | T/C (dose: 100.0 mg/kg/injection, schedule: Q01DX005 (ip), vehicle: saline): 120 % of control

COc1cc2cc3cc4cc(OC)c(OC)cc4c(C)[n+]3cc2cc1OC (tested in a mixture with another compound)
T/C (dose: 10.0 mg/kg/injection, schedule: Q01DX009 (ip), vehicle: Klucel (hydroxypropylcellulose) (HPC)): 163 % of control | T/C (dose: 20.0 mg/kg/injection, schedule: Q01DX009 (ip), vehicle: Klucel (hydroxypropylcellulose) (HPC)): 155 % of control | T/C (dose: 20.0 mg/kg/injection, schedule: Q01DX009 (ip), vehicle: saline): 180 % of control | T/C (dose: 40.0 mg/kg/injection, schedule: Q01DX009 (ip), vehicle: Klucel (hydroxypropylcellulose) (HPC)): 163 % of control | T/C (dose: 40.0 mg/kg/injection, schedule: Q01DX009 (ip), vehicle: saline): 150 % of control | T/C (dose: 40.0 mg/kg/injection, schedule: Q04DX003 (ip), vehicle: saline): 154 % of control and 166 % of control | T/C (dose: 80.0 mg/kg/injection, schedule: Q01DX009 (ip), vehicle: Klucel (hydroxypropylcellulose) (HPC)): 163 % of control | T/C (dose: 80.0 mg/kg/injection, schedule: Q01DX009 (ip), vehicle: saline): 180 % of control | T/C (dose: 80.0 mg/kg/injection, schedule: Q04DX003 (ip), vehicle: saline): 157 % of control | T/C (dose: 120.0 mg/kg/injection, schedule: Q01DX009 (ip), vehicle: saline): 150 % of control | T/C (dose: 160.0 mg/kg/injection, schedule: Q01DX009 (ip), vehicle: Klucel (hydroxypropylcellulose) (HPC)): 154 % of control | T/C (dose: 160.0 mg/kg/injection, schedule: Q01DX009 (ip), vehicle: saline): 200 % of control | T/C (dose: 160.0 mg/kg/injection, schedule: Q04DX003 (ip), vehicle: saline): 154 % of control | T/C (dose: 168.0 mg/kg/injection, schedule: Q04DX003 (ip), vehicle: saline): 99 % of control | T/C (dose: 250.0 mg/kg/injection, schedule: Q04DX003 (ip), vehicle: saline): 92 % of control

N#CC(=Nc1cc(Cl)cc(Cl)c1)C1=C(O)c2ccccc2C1=O
T/C (dose: 50.0 mg/kg/injection, schedule: Q01DX005 (ip), vehicle: saline with Tween-80): 101 % of control | T/C (dose: 100.0 mg/kg/injection, schedule: Q01DX005 (ip), vehicle: saline with Tween-80): 111 % of control | T/C (dose: 200.0 mg/kg/injection, schedule: Q01DX005 (ip), vehicle: saline with Tween-80): 101 % of control

COc1cccc(OC)c1C1(O)c2c(OC)cccc2Oc2cccc(OC)c21
T/C [8]: 95 % of control | T/C [9]: 100 % of control | T/C (dose: 400.0 mg/kg/injection, schedule: Q01DX001 (ip), vehicle: Klucel (hydroxypropylcellulose) (HPC)): 104 % of control

C[N+](C)(CCCCOCCCC[N+](C)(C)Cc1ccc([N+](=O)[O-])cc1)Cc1ccc([N+](=O)[O-])cc1
T/C (dose: 0.19 mg/kg/injection, schedule: Q01DX009 (ip), vehicle: saline with Tween-80): 100 % of control | T/C (dose: 0.37 mg/kg/injection, schedule: Q01DX009 (ip), vehicle: saline with Tween-80): 104 % of control | T/C (dose: 0.75 mg/kg/injection, schedule: Q01DX009 (ip), vehicle: saline with Tween-80): 108 % of control | T/C (dose: 1.5 mg/kg/injection, schedule: Q01DX009 (ip), vehicle: saline with Tween-80): 96 % of control | T/C (dose: 1.5 mg/kg/injection, schedule: Q04DX003 (ip), vehicle: saline with Tween-80): 109 % of control | T/C (dose: 3.0 mg/kg/injection, schedule: Q04DX003 (ip), vehicle: saline with Tween-80): 104 % of control

CN1CCC(OC(N)=O)CC1
T/C [1]: 109 % of control | T/C (dose: 100.0 mg/kg/injection, schedule: Q04DX003 (ip), vehicle: alcohol): 100 % of control | T/C (dose: 100.0 mg/kg/injection, schedule: Q04DX003 (ip), vehicle: saline sonified): 100 % of control | T/C (dose: 132.0 mg/kg/injection, schedule: Q01DX008 (ip), vehicle: saline): 95 % of control | T/C (dose: 132.0 mg/kg/injection, schedule: Q01DX009 (ip), vehicle: saline): 113 % of control | T/C (dose: 200.0 mg/kg/injection, schedule: Q01DX008 (ip), vehicle: saline): 104 % of control | T/C [3]: 109 % of control | T/C (dose: 200.0 mg/kg/injection, schedule: Q04DX003 (ip), vehicle: alcohol): 100 % of control | T/C (dose: 200.0 mg/kg/injection, schedule: Q04DX003 (ip), vehicle: saline sonified): 104 % of control | T/C (dose: 300.0 mg/kg/injection, schedule: Q01DX008 (ip), vehicle: saline): 104 % of control | T/C (dose: 300.0 mg/kg/injection, schedule: Q01DX009 (ip), vehicle: saline): 113 % of control | T/C [5]: 95 % of control | T/C (dose: 400.0 mg/kg/injection, schedule: Q04DX003 (ip), vehicle: alcohol): 118 % of control | T/C (dose: 400.0 mg/kg/injection, schedule: Q04DX003 (ip), vehicle: saline sonified): 100 % of control

O=CNc1c(Cl)c(Cl)c2c(c1Cl)Cc1cc(Cl)ccc1-2
T/C (dose: 0.18 mg/kg/injection, schedule: Q01DX009 (ip), vehicle: DMSO): 91 % of control | T/C (dose: 0.37 mg/kg/injection, schedule: Q01DX009 (ip), vehicle: DMSO): 95 % of control | T/C (dose: 0.75 mg/kg/injection, schedule: Q01DX009 (ip), vehicle: DMSO): 100 % of control | T/C (dose: 3.0 mg/kg/injection, schedule: Q01DX009 (ip), vehicle: DMSO): 89 % of control | T/C (dose: 12.5 mg/kg/injection, schedule: Q01DX009 (ip), vehicle: DMSO): 96 % of control | T/C (dose: 50.0 mg/kg/injection, schedule: Q01DX001 (ip), vehicle: Klucel (hydroxypropylcellulose) (HPC)): 90 % of control | T/C [8]: 90 % of control | T/C (dose: 100.0 mg/kg/injection, schedule: Q01DX009 (ip), vehicle: Klucel (hydroxypropylcellulose) (HPC)): 116 % of control | T/C (dose: 100.0 mg/kg/injection, schedule: Q04DX003 (ip), vehicle: Klucel (hydroxypropylcellulose) (HPC)): 90 % of control and 100 % of control | T/C [9]: 86 % of control | T/C (dose: 200.0 mg/kg/injection, schedule: Q01DX009 (ip), vehicle: Klucel (hydroxypropylcellulose) (HPC)): 116 % of control | T/C (dose: 200.0 mg/kg/injection, schedule: Q04DX003 (ip), vehicle: Klucel (hydroxypropylcellulose) (HPC)): 90 % of control and 91 % of control | T/C (dose: 400.0 mg/kg/injection, schedule: Q01DX009 (ip), vehicle: Klucel (hydroxypropylcellulose) (HPC)): 105 % of control | T/C (dose: 400.0 mg/kg/injection, schedule: Q04DX003 (ip), vehicle: Klucel (hydroxypropylcellulose) (HPC)): 86 % of control and 87 % of control

N#CC(Nc1ccccc1C(N)=O)c1ccccc1 (stereo unspecified)
T/C [2]: 109 % of control | T/C [4]: 104 % of control | T/C [6]: 95 % of control

O=C(O)COc1ccc(-c2ccc(Br)cc2)cc1
T/C [7]: 90 % of control | T/C (dose: 200.0 mg/kg/injection, schedule: Q01DX009 (ip), vehicle: saline with Tween-80): 100 % of control | T/C (dose: 400.0 mg/kg/injection, schedule: Q01DX009 (ip), vehicle: saline with Tween-80): 101 % of control

COc1cc([N+](=O)[O-])ccc1N
T/C (dose: 100.0 mg/kg/injection, schedule: Q04DX003 (ip), vehicle: saline with Tween-80): 100 % of control
